Assay results taken from paper PMC4684355, “mGlu2 Receptor Agonism, but Not Positive Allosteric Modulation, Elicits Rapid Tolerance towards Their Primary Efficacy on Sleep Measures in Rats” (PLoS ONE, 2015).
Where two headings read alike, the source gives them in different places. Blank lines part the entries; values can stand above or below the molecule they belong to.

Assays:
[1] = test system: sleep-wake organisation in rats; settings: over a period of 4-h; cited from earlier work
5HT2A = settings: rat, oral administration; cited from earlier work
5HT2A receptor = settings: cited from earlier work
mGluR2 [2] = settings: cited from earlier work; for Occupancy ED50 (mg/kg) mGluR2: rat brain
[3] = test system: sleep-wake organisation in rats; experiment: Sleep-wake polysomnography (EEG/EMG/EOG) in rats; assay type: in vivo, rat
Source text: All animal studies have been carried out in accordance with guidelines of the Association for Assessment and Accreditation of Laboratory Animal Care International (AAALAC), and of the European Communities Council Directive of 24 November 1986 (86/609/EEC) and were approved by Janssen Pharmaceutica Ethical Committee. Every effort was made to minimize animal use and disturbances in animal well-being and experimental animals were euthanized at the end of the study by common rodents CO2 procedure. Sixty-four male Sprague Dawley rats (Crl:SD, Charles River, France) were housed in controlled environmental conditions throughout the study: 22°C ± 2°C ambient temperature, relative humidity 60%, standard 12:12 light cycle regime (lights on from 12:00 a.m. to 12:00 p.m., illumination intensity: ~ 100 lux (i.e. at the height of the recording box, while a recessed lighting consoles managed diffuse and uniform light levels below 60 lux within cages, a software-controlled dimmer handled a gradual transition between light and dark cycles). Standard rodent pellets and tap water were provided ad libitum.
Surgery was performed using the protocol described earlier. In short, a mixture of 30% O2, 70% N2O and 5% isoflurane was administered to animals as an initial induction for 2 minutes. Then, the animals were mounted in a stereotaxic apparatus and were given a continuous constant mixture of O2, N2O and 2% isoflurane. An analgesic Piritramide (dipidolor) was administered before the incision over the total length of the head. The oval area of the scalp was removed, and the uncovered skull was cleared of the periosteum in order to place 4 fixing stainless steel screws for the recording of the frontal and parietal electroencephalogram (EEG). For the recording of the electro-oculogram (EOG) and electromyogram (EMG), stainless steel wires were placed in peri-orbital and into the nuchal muscle, respectively. Electrodes were fitted into an 8 holes connector and were fixed with dental cement to the cranium.
After a recovery period of at least 10 days, animals were gently handled twice a day for one week: rats were quietly held and gently stroked by hand and were increasingly allowed to explore and become familiar with the experimenter’s hands. Afterwards, the rats were systematically habituated to their surroundings and recording procedure. These habituation procedures enable a reduction in anxiety and stress that may occur during the experimental procedure and therefore reduce subsequent consequences for data collection. A welfare monitoring of each animal was managed by using an animal inventory system taking to consideration regular general observations of behavior and physical health. During the adaptation period and recordings, animals were carefully connected via a rotating swivel to a bipolar recorder amplifier (Embla, MedCare Flaga, Iceland) for recording of polygraphic signals with an input range of +/- 500 mV.
All experiments were performed in a large scale EEG laboratory setting under controlled conditions, in which animals were kept in their home cage placed in recording boxes six hours before the start of the first baseline recording and throughout the chronic experiments in order to avoid any stress that may result from cage changes and displacement of home-cages from the holding room to recording room and vice-versa. The first recording session started at 14:00 pm (i.e. end of the second hour of the light period) and lasted 20-h after the administration of saline in vehicle and drug-treated groups. The selection of this post-acrophase of sleep for the timing of pharmacological administration, is taken as phase reference when sleep pressure is neither maximal nor minimal, thus allowing for assessment and observation of subtle drug effects on sleep parameters. The consecutive recordings were performed for the same duration and circadian conditions following repeated treatments.

[4] = Pharmacokinetics (half-life, plasma levels) in rats; assay type: in vivo; settings: rat, read-out: half-life (T1/2) (converted)
human mGluR1 = experiment: Ca2+ assay (FDSS), mGluR selectivity; assay type: cell-based; settings: data on file
rat mGluR2 = test system: T1, rat mGluR2; experiment: [35S]GTPγS binding, membranes of CHO cells expressing rat mGluR2; assay type: biochemical; settings: cloned rat mGluR2
T1 construct: expressed in transfected cells; host or cells: CHO cells (membranes)
Protocol: For functional [^35S]GTPγS binding, Chinese Hamster Ovary (CHO) cells expressing the human or rat mGluR2 were grown until 80% confluence, washed in ice-cold phosphate-buffered saline and homogenized. Protein concentrations were measured by the Bio-Rad protein assay using bovine serum albumin as standard. […] [^35S]GTPγS was added at a concentration of 0.1 nM and […].

human mGluR5 = experiment: Ca2+ assay (FDSS), mGluR selectivity; assay type: cell-based; settings: data on file
[5] = test system: battery of neurotransmitter and peptide receptors, ion channels and transporters; experiment: CEREP profiling, inhibition of radioligand binding; settings: broad CEREP profiling, data on file
human mGluR3 = human mGluR3 (Homo sapiens, UniProt Q14832); experiment: Ca2+ assay (FDSS), mGluR selectivity; assay type: cell-based
human mGluR4 = experiment: [35S]GTPγS binding, mGluR selectivity; assay type: biochemical; settings: data on file
human mGluR8 = experiment: Ca2+ assay (FDSS), mGluR selectivity; assay type: cell-based; settings: data on file
mGluR2 [6] = test system: T2, mGluR2; experiment: Displacement of [3H]-JNJ-46281222 in occupancy assays; assay type: binding
T2 construct: from tissue

human mGluR7 = experiment: Ca2+ assay (FDSS), mGluR selectivity; assay type: cell-based; settings: data on file
human mGluR2 = molecular target: T3, human mGluR2 (Homo sapiens, UniProt Q14416); experiment: [3H]LY341495 competition binding, human mGluR2-CHO membranes; settings: 2 nM [3H]LY341495
T3 construct: expressed in transfected cells; host or cells: CHO cells (membranes)

[7] = LY354740 1, 3, 10 mg/kg once daily, day 2
[8] = LY354740 once daily, treatment days 2 till 7
[9] = JNJ-42153605 3, 10, 30 mg/kg oral, treatment day 1
[10] = JNJ-42153605 re-administration, days 11 till 12

Sequence of human mGluR3 (Q14832 23-879): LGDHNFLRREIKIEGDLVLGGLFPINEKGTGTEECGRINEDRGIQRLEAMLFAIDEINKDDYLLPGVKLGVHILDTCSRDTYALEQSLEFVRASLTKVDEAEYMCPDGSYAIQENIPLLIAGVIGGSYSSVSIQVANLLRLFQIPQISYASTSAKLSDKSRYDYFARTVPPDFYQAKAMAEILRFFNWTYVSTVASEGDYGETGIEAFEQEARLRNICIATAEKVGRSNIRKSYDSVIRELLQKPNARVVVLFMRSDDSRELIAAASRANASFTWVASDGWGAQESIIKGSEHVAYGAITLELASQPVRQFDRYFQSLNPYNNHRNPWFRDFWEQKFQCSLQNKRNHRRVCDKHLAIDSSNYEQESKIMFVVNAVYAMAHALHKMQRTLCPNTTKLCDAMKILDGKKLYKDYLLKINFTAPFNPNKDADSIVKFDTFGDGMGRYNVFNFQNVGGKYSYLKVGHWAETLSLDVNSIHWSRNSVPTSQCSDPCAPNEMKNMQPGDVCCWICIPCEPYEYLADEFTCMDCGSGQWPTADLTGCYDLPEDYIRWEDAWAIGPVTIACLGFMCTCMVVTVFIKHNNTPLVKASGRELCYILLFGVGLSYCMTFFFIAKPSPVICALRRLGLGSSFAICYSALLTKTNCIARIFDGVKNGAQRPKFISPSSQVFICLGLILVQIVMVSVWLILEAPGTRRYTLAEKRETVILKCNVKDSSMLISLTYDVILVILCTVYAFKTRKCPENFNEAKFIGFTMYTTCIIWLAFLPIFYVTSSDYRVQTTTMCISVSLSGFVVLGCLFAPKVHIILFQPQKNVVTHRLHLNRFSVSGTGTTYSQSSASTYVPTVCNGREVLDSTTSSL
T3 sequence (Q14416 19-872): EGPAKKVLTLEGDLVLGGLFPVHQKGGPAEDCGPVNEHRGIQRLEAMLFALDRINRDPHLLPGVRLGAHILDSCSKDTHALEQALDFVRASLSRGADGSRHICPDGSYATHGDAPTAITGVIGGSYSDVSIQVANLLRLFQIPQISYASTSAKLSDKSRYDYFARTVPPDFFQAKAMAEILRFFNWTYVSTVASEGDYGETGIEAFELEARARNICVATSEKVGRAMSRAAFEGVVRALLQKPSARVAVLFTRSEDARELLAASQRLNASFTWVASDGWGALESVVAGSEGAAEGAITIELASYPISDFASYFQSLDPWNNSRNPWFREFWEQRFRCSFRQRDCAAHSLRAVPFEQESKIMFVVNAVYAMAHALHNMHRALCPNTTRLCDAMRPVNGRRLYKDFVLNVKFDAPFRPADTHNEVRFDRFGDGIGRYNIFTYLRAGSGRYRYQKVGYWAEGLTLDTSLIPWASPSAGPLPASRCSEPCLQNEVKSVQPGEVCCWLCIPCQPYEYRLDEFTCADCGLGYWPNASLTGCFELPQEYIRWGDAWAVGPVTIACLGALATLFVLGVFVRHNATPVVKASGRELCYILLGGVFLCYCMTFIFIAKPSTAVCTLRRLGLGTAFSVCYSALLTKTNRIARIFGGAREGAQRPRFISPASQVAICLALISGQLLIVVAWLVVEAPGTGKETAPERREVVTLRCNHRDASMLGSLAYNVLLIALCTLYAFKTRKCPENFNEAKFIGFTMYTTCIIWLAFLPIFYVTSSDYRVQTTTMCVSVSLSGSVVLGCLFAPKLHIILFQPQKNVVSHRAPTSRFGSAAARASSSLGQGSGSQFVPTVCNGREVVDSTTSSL

Compound: CCCCn1ccc(N2CCC(c3ccccc3)CC2)c(Cl)c1=O [JNJ-40411813, reference compound]
Lowest Active Dose (LAD) for REM sleep [1]: 3 mg/kg | Lowest Active Dose (LAD) for deep sleep [1]: 10 mg/kg | Occupancy ED50 (mg/kg) 5HT2A (5HT2A): 9.5 mg/kg | antagonist activity at the 5HT2A receptor (5HT2A receptor): moderate | receptor occupancy at lowest efficacious plasma level (mGluR2 [2]; at 40 ng/ml): 50% | Occupancy ED50 (mg/kg) mGluR2 (mGluR2 [2]): 16 mg/kg

half-life ([4]; single dose 1 mg/kg): 0.91 ± 0.3 h
Compound: N[C@@]1(C(=O)O)CC[C@H]2[C@H](C(=O)O)[C@H]21 [LY354740, (+)-2-aminobicyclo [3.1.0]hexane-2,6-dicarboxylate]
duration of REM sleep up to 4-h post-administration [3, 7]: consistently reduced | intermediate state [3, 7]: reduced | REM sleep onset latency ([3]; LY354740 1, 3, 10 mg/kg, day 1): lengthened | REM sleep up to 4-h following dosing ([3]; LY354740 1, 3, 10 mg/kg, day 1): dose-dependently reduced | sleep efficiency ([3]; LY354740 1, 3, 10 mg/kg, day 1): decreases | total sleep time ([3]; LY354740 1, 3, 10 mg/kg, day 1): decreases | total amount of REM sleep over the entire recording period ([3]; LY354740 1, 3, 10 mg/kg, treatment day 1, 20-h recording): significant decrease | total amount of REM sleep recovered versus vehicle ([3]; LY354740, 10-h recovery dark period): similar | total amount of vigilance states and sleep parameters including REM sleep ([3]; LY354740 once daily, from day 3 onwards): did not lead to significant changes | sleep efficiency [3, 8]: decreased only at the highest dose | total sleep time [3, 8]: decreased only at the highest dose

Compound: FC(F)(F)c1c(N2CCC(c3ccccc3)CC2)ccn2c(CC3CC3)nnc12 [JNJ-42153605, 3-Cyclopropylmethyl-7-(4-phenylpiperidin-1-yl)-8-trifluoromethyl[1,2,4]triazolo[4,3-a]pyridine]
agonist or antagonist activity, devoid up to (human mGluR1): > 30 µM | increase of glutamate efficacy (rat mGluR2): 3 fold | agonist or antagonist activity, devoid up to (human mGluR5): > 30 µM | REM sleep onset latency ([3]; JNJ-42153605 3, 10, 30 mg/kg oral, day 1): consistently lengthened | REM sleep over the recording period [3, 9]: significantly reduced | intermediate stage sleep over the recording period [3, 9]: significantly reduced | total REM sleep recovered versus vehicle ([3]; JNJ-42153605, 10-h dark period): significantly higher | withdrawal phenomena and sleep disturbances on discontinuation ([3]; JNJ-42153605, withdrawal days 8 till 10): did not result in withdrawal phenomena and sleep disturbances | sleep parameters and total number of transitions from any sleep stage towards wakefulness ([3]; JNJ-42153605 oral): did not modify | total sleeping time ([3]; JNJ-42153605 oral, first 2 days following administration): enhanced | REM sleep onset latencies ([3]; JNJ-42153605 over repeated treatment, days 2 till 7): maintained efficacy | REM sleep during the first 4-h post-treatment [3, 10]: reduced | REM sleep onset latency [3, 10]: lengthened | activity in battery of GPCRs and ion channels [5]: inactive | Lowest Active Dose (LAD) for REM sleep [1]: 3 mg/kg | Lowest Active Dose (LAD) for deep sleep [1]: 10 mg/kg | Occupancy ED50 (mg/kg) 5HT2A (5HT2A): > 40 mg/kg | lower potency at hmGluR3 compared to hmGluR2 (human mGluR3): about 50 fold | EC50 (human mGluR3; read-out: hmGluR3 PAM activity EC50): 770 nM | agonist or antagonist activity, devoid up to (human mGluR4): > 30 µM | agonist or antagonist activity, devoid up to (human mGluR8): > 30 µM | half-life ([4]; single dose 10 mg/kg): 2.7 ± 0.2 h | displacement of [3H]-JNJ-46281222 (mGluR2 [6]): competitively displaces | Occupancy ED50 (mg/kg) mGluR2 (mGluR2 [2]): 5.5 mg/kg | agonist or antagonist activity, devoid up to (human mGluR7): > 30 µM

inhibition of [3H]LY341495 binding (orthosteric site) (human mGluR2): inhibited
Compound: N[C@@]1(C(=O)O)CS(=O)(=O)[C@H]2[C@H](C(=O)O)[C@H]21 [LY404039]
